The target in data set [1] is T1, ETA (Homo sapiens, UniProt P25101).
T1 sequence (P25101 21-427): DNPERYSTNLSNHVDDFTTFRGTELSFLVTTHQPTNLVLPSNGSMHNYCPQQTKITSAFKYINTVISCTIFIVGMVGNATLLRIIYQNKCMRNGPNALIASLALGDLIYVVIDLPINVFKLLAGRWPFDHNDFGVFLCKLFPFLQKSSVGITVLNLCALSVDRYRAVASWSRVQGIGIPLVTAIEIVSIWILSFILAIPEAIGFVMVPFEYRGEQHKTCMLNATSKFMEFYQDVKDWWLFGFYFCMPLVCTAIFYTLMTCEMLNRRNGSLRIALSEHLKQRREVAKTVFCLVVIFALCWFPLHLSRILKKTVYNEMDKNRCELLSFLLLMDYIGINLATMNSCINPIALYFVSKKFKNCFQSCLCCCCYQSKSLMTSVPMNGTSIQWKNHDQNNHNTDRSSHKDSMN
The settings on record: read-out: affinity for ETA; cited from earlier work.

The nature of data set [2]: Reduction of food intake in fasted mice after i.p. injection of peptide. To be noted: fasted mice, i.p. Type of data set: in vivo, NIH/Swiss mice. From the text: In yet another embodiment, the ET receptor agonist is adenoregulin. See, e.g., Donly et al., Proc. Natl. Acad. Sci. USA 89:10960-963 (1992); Amiche et al., Biochem. Biophys. Res. Comm. 191:983-90 (1993). Known sequences for adenoregulin include Genbank sequences X70278 and X72387. Originally isolated from the skin of the frog Phyllomedusa bicolor, adenoregulin belongs to the family of dermaseptins, a family of antimicrobial peptides. See, e.g., Amiche et al., J. Biol. Chem. 269:17847-52 (1994); Zhou et al., Biotechnol. Lett. 27:725-30 (2005).
Materials & Methods: NIH/Swiss mice were fasted approximately 17 hours prior to initiation of the experiment. Peptides were injected intraperitoneally (i.p.) at time zero using doses as indicated. All mice received an intraperitoneal injection (200 μl) of either vehicle or compounds at doses indicated and were immediately presented with a pre-weighed food pellet. The food pellet was weighed at 30-minute, 1-hr, and 2-hr intervals after presentation to determine the amount of food eaten. Each point reflects n=4 for mice receiving an endothelin or endothelin agonist or n=3 for mice receiving vehicle.
Food intake values reflect, at each time point, effect of test sample on food intake is expressed as % change relative to vehicle using the formula provided below.
% basal=−100*[1−(food intake of treatment group/food intake of vehicle group)].
Significant test sample effects were identified by ANOVA (p<0.05). Where a significant difference exists, test means were compared to the control mean using Dunnett's test. One-way ANOVA with Dunnett's post test was performed using GraphPad Prism® version 3.01 for Windows, GraphPad Software, San Diego, Calif. USA.

As for `CC[C@H](C)[C@H](NC(=O)[C@H](CC(=O)O)NC(=O)[C@H](CC(C)C)NC(=O)[C@H](Cc1c[nH]cn1)NC(=O)[C@@H]1CSSC[C@H](N)C(=O)N[C@@H]([C@@H](C)O)C(=O)N[C@H]2CSSC[C@H](NC(=O)[C@H](CCC(=O)O)NC(=O)[C@H](CCCCN)NC(=O)[C@H](CC(=O)O)NC(=O)[C@H](CCCCN)NC(=O)[C@H](Cc3ccc(O)cc3)NC(=O)[C@H]([C@@H](C)O)NC(=O)[C@H](Cc3ccccc3)NC2=O)C(=O)N[C@@H](C(C)C)C(=O)N[C@@H](Cc2ccc(O)cc2)C(=O)N[C@@H](Cc2ccc(O)cc2)C(=O)N1)C(=O)N[C@H](C(=O)N[C@@H](Cc1c[nH]c2ccccc12)C(=O)O)[C@@H](C)CC` [ET-3, reference compound], the Kd in data set [1] is 6.5 nM. The observable negative effects result in data set [2] is “without observable negative effects”.

The record behind these values is patent publication US20100004166A1, “Endothelin and Endothelin Receptor Agonists in the Treatment of Metabolic Diseases” (priority 2007, published 2010).
